# In EP1561465A2, “Methods of use of fluoroquinolone compounds against bacteria” (LG Life Sciences, Ltd., priority 1999, dated 2001):
# Like-named read-outs stand apart in the source and are kept apart here.
# How the values were obtained:
# [1] = tested on: Aeromonas spp.; assay: MIC by agar dilution (NCCLS M7-A4), 288 enteropathogenic isolates, eight quinolones; assay type: cell-based; details: Aeromonas spp. (n = 16)
# [2] = tested on: Streptococcus pneumoniae; assay: MIC by agar dilution (NCCLS), 411 isolates Buenos Aires 1998-99; assay type: cell-based; details: for MIC / MIC90: Streptococcus pneumoniae; for MIC: Ciprofloxacin-resistant S. pneumoniae, read-out: MIC; for MIC90: read-out: MIC90
# [3] = tested on: Streptococcus pyogenes; assay: as above; assay type: cell-based; details: Streptococcus pyogenes (n = 69)
# [4] = parameters: species or system healthy volunteers; details: human, in vivo, po
# [5] = tested on: E. coli; assay: MIC and MBC by microdilution in Mueller-Hinton broth, uropathogens; assay type: cell-based
# Method: (§1) MICs and MBCs were determined by a microdilution method with Mueller-Hinton broth. An inoculum of 1.3-9.4 x 10^5 colony forming units (CFU) per ml was used.
# (§2) Strains included a reference strain E. coli ATCC 25922, susceptible to nalidixic acid (Nal-S) and the following clinical isolates obtained from complicated UTI patients: E. coli (resistant to nalidixic acid), K. pneumoniae, P. mirabilis , P. aeruginosa, […] (3 strains) and Enterococcus faecalis (2 strains).
# [6] = tested on: K. pneumoniae; assay: as above; assay type: cell-based
# Method: as §1, §2
# [7] = tested on: P. aeruginosa; assay: as above; assay type: cell-based
# Method: as §1, §2
# [8] = tested on: P. mirabilis; assay: as above; assay type: cell-based
# Method: as §1, §2
# [9] = tested on: E. coli; assay: Urinary bactericidal titers (UBT) and AUBTC of volunteers' urine; assay type: cell-based; details: for AUBTC (range): urine after gemifloxacin 320 mg or ofloxacin 400 mg
# [10] = tested on: P. mirabilis; assay: as above; assay type: cell-based; details: P. mirabilis (16) Laboratory No. 414; urine after gemifloxacin 320 mg or ofloxacin 400 mg
# [11] = tested on: P. aeruginosa; assay: as above; assay type: cell-based; details: P. aeruginosa (16) Laboratory No. 568; urine after gemifloxacin 320 mg or ofloxacin 400 mg
# [12] = tested on: S. aureus; assay: as above; assay type: cell-based; details: urine after gemifloxacin 320 mg or ofloxacin 400 mg
# [13] = tested on: E. faecalis; assay: as above; assay type: cell-based; details: urine after gemifloxacin 320 mg or ofloxacin 400 mg
# [14] = tested on: Klebsiella pneumoniae; assay: MIC by agar dilution (NCCLS), 322 nosocomial Gram negative isolates, Athens 1998; assay type: cell-based; details: n = 56 isolates
# [15] = tested on: Proteus mirabilis; assay: as above; assay type: cell-based; details: Proteus mirabilis; n = 57 isolates
# [16] = tested on: Streptococcus pneumoniae; assay: MIC by E-test (broth microdilution for gemifloxacin), 107 pneumococcal carrier isolates, Athens 1998; assay type: cell-based; details: E-test; for MIC50 / MIC90: Streptococcus pneumoniae; for MIC50: read-out: MIC50; for MIC90: read-out: MIC90
# Method: Susceptibility testing was performed by agar dilution or epsilometer method (E-test), as recommended by the NCCLS. […] The susceptibility profiles of the strains were assessed using the Epsilometer method (E-test). The isolates were subdivided into two groups according to their penicillin susceptibility patterns (penicillin-susceptible and penicillin-intermediate.
# [17] = tested on: Staphylococcus aureus; assay: MIC by agar macrodilution (NCCLS), 373 Gram positive isolates, Athens 1998; assay type: cell-based; details: Methicillin-susceptible Staphylococcus aureus (n = 85)
# [18] = Streptococcus pneumoniae (n = 90)
# [19] = Penicillin-intermediate S. pneumoniae (n = 24)
# [20] = Penicillin-susceptible S. pneumoniae (n = 107)
compound,measurement,setting,value
"CC1COc2c(N3CCN(C)CC3)c(F)cc3c(=O)c(C(=O)O)cn1c23 (centres unmarked) [Ofloxacin, ofloxacin]",% Susceptible,[1],100%
same,MIC50,[1],≤ 0.015 µg/mL
same,MIC90,[1],0.03 µg/mL
same,MIC Range,[1],≤0.015 to 0.12 µg/mL
same,MIC Range,[2]; [18],1 to 16 µg/mL
same,MIC,[2]; Strain 1,2 µg/mL
same,MIC,[2]; Strain 2,2 µg/mL
same,MIC,[2]; Strain 3,16 µg/mL
same,MIC,[2]; Strain 4,8 µg/mL
same,MIC90,"[2]; S. pneumoniae, Penicillin intermediate (n = 17)",2 µg/mL
same,MIC90,"[2]; S. pneumoniae, Penicillin resistant (n = 4)",1 µg/mL
same,MIC90,"[2]; S. pneumoniae, Penicillin susceptible (n = 69)",2 µg/mL
same,MIC90,[2]; [18],2 µg/mL
same,MIC Range,[3],0.5 to 4 µg/mL
same,MIC90,[3]; read-out: MIC90,2 µg/mL
same,tolerability,[4],well tolerated
same,MIC,"[5]; E. coli ATCC 25922, inoculum 1.3 CFU 10^5/ml",0.06 µg/mL
same,MIC,"[5]; E. coli Laboratory No. 523, inoculum 3.4 CFU 10^5/ml",0.5 µg/mL
same,MIC,"[5]; Escherichia coli, ATCC25922, E. coli ATCC 25922 (reference strain), read-out: MIC",0.06 µg/mL
same,MBC,"[5]; Escherichia coli, ATCC25922, E. coli ATCC 25922, inoculum 1.3 CFU 10^5/ml",0.06 µg/mL
same,MBC,"[5]; Escherichia coli, E. coli Laboratory No. 523, inoculum 3.4 CFU 10^5/ml",0.5 µg/mL
same,MIC,"[5]; Escherichia coli, E. coli clinical isolate (0.06/0.5), read-out: MIC",0.5 µg/mL
same,MIC,"[6]; K. pneumoniae Laboratory No. 595, inoculum 3.7 CFU 10^5/ml",0.06 µg/mL
same,MBC,"[6]; Klebsiella pneumoniae, K. pneumoniae Laboratory No. 595, inoculum 3.7 CFU 10^5/ml",0.06 µg/mL
same,MIC,"[6]; Klebsiella pneumoniae, K. pneumoniae clinical isolate, read-out: MIC",0.06 µg/mL
same,MIC,"[7]; P. aeruginosa Laboratory No. 568, inoculum 5.6 CFU 10^5/ml",4 µg/mL
same,MBC,"[7]; Pseudomonas aeruginosa, P. aeruginosa Laboratory No. 568, inoculum 5.6 CFU 10^5/ml",4 µg/mL
same,MIC,"[7]; Pseudomonas aeruginosa, P. aeruginosa clinical isolate, read-out: MIC",4 µg/mL
same,MIC,"[8]; P. mirabilis Laboratory No. 414, inoculum 2.5 CFU 10^5/ml",0.125 µg/mL
same,MIC,[8]; Proteus mirabilis,0.125 µg/mL
same,MBC,"[8]; Proteus mirabilis, P. mirabilis Laboratory No. 414, inoculum 2.5 CFU 10^5/ml",0.125 µg/mL
same,AUBTC (range),[9]; E. coli (16) ATCC 25922,537 (258-888)
same,AUBTC (range),[9]; E. coli (16) Laboratory No. 523,276 (90-516)
same,time for which median UBTs exceed 0,"[9]; reference strain E. coli ATCC 25922, 320 mg gemifloxacin / 400 mg ofloxacin",4 days
same,AUBTC (range),[10],438 (276-654)
same,AUBTC (range),[11],99 (42-258)
same,AUBTC (range),[12]; S. aureus (13) Laboratory No. 636,105 (0-279)
same,AUBTC (range),[12]; S. aureus (16) Laboratory No. 83,387 (162-570)
same,AUBTC (range),[12]; S. aureus (16) Laboratory No. 161,39 (0-78)
same,AUBTC (range),[13]; E. faecalis (13) Laboratory No. 55,0 (0-54)
same,AUBTC (range),[13]; E. faecalis (16) Laboratory No. 60,135 (90-204)
same,MIC50,[14]; Klebsiella pneumoniae,0.125 µg/mL
same,MIC90,[14]; Klebsiella pneumoniae,1 µg/mL
same,MIC Range,[14],0.06 to 32 µg/mL
same,MIC50,[15],0.25 µg/mL
same,MIC90,[15],32 µg/mL
same,MIC Range,"[16]; Penicillin-intermediate S. pneumoniae (n = 24), in µg/mL (unit assumed)",0.75-6
same,MIC50,[16]; [19],2 µg/mL
same,MIC90,[16]; [19],3 µg/mL
same,MIC50,[16]; [20],2 µg/mL
same,MIC90,[16]; [20],4 µg/mL
same,MIC Range,[17],0.25 to 32 µg/mL
same,MIC90,[17]; read-out: MIC90,1 µg/mL
